The source of these data is US20230331652A1, “TRANS-CYCLOOCTENES WITH HIGH REACTIVITY AND FAVORABLE PHYSIOCHEMICAL PROPERTIES” (University of Delaware, priority 2020, published 2023).

“Also recorded” adds a separate entry of the source.

Data set [1] is described as follows: Stopped-flow kinetics of the Diels-Alder reaction with tetrazine 20. The class given is physicochemical. The following applies: for Kobs: 95:5 PBS/MeOH, in s-1 (unit assumed). As for the experimental part:
The kinetics for the reaction of a-TCO derivative 14 toward a 3,6-dipyridyl-s-tetrazinyl succinamic acid derivative 20 were measured by stopped flow kinetics at 25° C. in 95:5 PBS:MeOH (FIG. 4A).
Stopped-flow kinetics measurements were performed on a SX18MV-R stopped-flow spectrophotometer (Applied Photophysics Ltd.) with temperature control (25° C.).
The reaction between 5-ax-hydroxy-5-eq-(2-hydroxyethyl)-trans-cyclooctene 14 and 3,6-dipyridyl-s-tetrazine-mono-succinamic acid 20 was monitored by a SX18MV-R stopped-flow spectrophotometer (Applied Photophysics Ltd.) at 325 nm by measuring the exponential decay of tetrazine under pseudo-first order conditions. Solutions of 14 (0.98, 1.46, 1.95, and 2.63 mM in 9:1 PBS/MeOH) and tetrazine (0.1 mM in PBS) were mixed in the stopped-flow spectrophotometer in equal volumes resulting in final concentrations of 0.49 mM, 0.73 mM, 0.97 mM, and 1.31 mM of 14 and 0.05 mM of tetrazine in 95:5 PBS/MeOH. Three independent samples were prepared for each TCO concentration and measurements were taken in duplicate every 0.1 ms for 0.1 sat 25° C. The observed rates kobs for each run were determined by nonlinear regression analysis of the data points using Prism software (Version 8.00, GraphPad Software Inc). The average kobs values were plotted against the concentrations of 14 to obtain the bimolecular rate constant k2 from the slope of the plot.
The observed rates (kobs) of 5-ax-hydroxy-5-eq-(2-hydroxyethyl)-trans-cyclooctene 14 (10-30 equivalents) and 3,6-dipyridyl-s-tetrazine-mono-succinamic acid 20 were measured using stopped-flow kinetics. The final concentrations of 14 after injection were (A) 0.49 mM, (B) 0.73 mM, (C) 0.97 mM, and (D) 1.31 mM and the concentration of tetrazine was 0.05 mM in 95:5 PBS/MeOH at 25° C. Duplicate measurements were obtained for three independent samples for each concentration of 14.
The reaction between 5-ax-hydroxy-trans-cyclooctene 4a and 3,6-dipyridyl-s-tetrazine-mono-succinamic acid 20 was monitored by a SX18MV-R stopped-flow spectrophotometer (Applied Photophysics Ltd.) at 325 nm by measuring the exponential decay of tetrazine under pseudo-first order conditions. Solutions of 4a (100, 200, 300, and 400 μM in 9:1 PBS/MeOH) and tetrazine (20 μM in PBS) were mixed in the stopped-flow […] 95:5 PBS/MeOH. Three independent samples were prepared for each TCO concentration and measurements were taken in duplicate every 0.1 ms for 0.2 s at 25° C. The observed rates kobs for each run were determined by nonlinear regression analysis of the data points using Prism software (Version 8.00, GraphPad Software Inc). The average kobs values were plotted against the concentrations of 4a to obtain the bimolecular rate constant k2 from the slope of the plot.
The observed rates (kobs) of 5-ax-hydroxy-trans-cyclooctene 4a (5-20 equivalents) and 3,6-dipyridyl-s-tetrazine-mono-succinamic acid 20 were measured using stopped-flow kinetics. […]

The nature of data set [2]: Stability in methanol-d4 (35 mM) by quantitative 1H NMR. Format: physicochemical. The conditions noted are these: 35 mM in methanol-d4, after 7 days. The protocol:
A solution of 14 (4.5 mg, 26 μmol) in methanol-d4 (750 μL) was monitored by quantitative ^1H NMR on a 600 MHz instrument to observe the decomposition of the trans-isomer over time. Methyl tert-butyl ether (3.1 μL, 26 μmol) was used as an internal standard. […] The results were plotted using Prism software (Version 8.00, GraphPad Software Inc). A waterfall plot of the ^1H NMR spectra is provided.
A solution of 4a (3.3 mg, 26 μmol) in methanol-d4 (750 μL) was monitored by quantitative ^1H NMR on a 600 MHz instrument to observe the decomposition of the trans-isomer over time. Methyl tert-butyl ether (3.1 μL, 26 μmol) was used as an internal standard. […] The results were plotted using Prism software (Version 8.00, GraphPad Software Inc). A waterfall plot of the ^1H NMR spectra is provided.

A short description of data set [3]: Stability in phosphate buffered D2O, pD=7.4 (33 mM) by quantitative 1H NMR. The class given is physicochemical. As for the experimental part:
(§1) Phosphate buffered D2O (pD=7.4) was prepared by combining anhydrous sodium dihydrogen phosphate (NaH2PO4, 77.1 mg) and anhydrous disodium hydrogen phosphate (Na2HPO4, 204.4 mg) with 20 mL of D2O to make a 0.1 M solution. The pD was measured on a Fisher Scientific AB15 Plus pH meter and pH values were converted to pD by adding 0.4 units. The pD was adjusted to 7.4 with DCI (35 wt. % in D2O) and NaOD (40 wt. % in D2O) as necessary.
A solution of 14 (4.3 mg, 25 μmol) in phosphate buffered D2O (750 μL, pD=7.4) was monitored by quantitative ^1H NMR on a 600 MHz instrument to observe the decomposition of the trans-isomer over time. Methyl tert-butyl ether (3.0 μL, 26 μmol) was used as an internal standard. After 1 day, 90% of 14 remained and after 5 days, 39% remained (FIG. 6B). The results were plotted using Prism software (Version 8.00, GraphPad Software Inc). A waterfall plot of the ^1H NMR spectra is provided.
A solution of 4a (3.2 mg, 25 μmol) in phosphate buffered D2O (750 μL, pD=7.4) was monitored by quantitative ^1H NMR on a 600 MHz instrument to observe the decomposition of the trans-isomer over time. Methyl tert-butyl ether (3.0 μL, 26 μmol) was used as an internal standard. After 1 day, 85% of 4a remained and after 5 days, 35% remained (FIG. 6B). The results were plotted using Prism software (Version 8.00, GraphPad Software Inc). A waterfall plot of the ^1H NMR spectra is provided.

Data set [4] in a line: Stability with mercaptoethanol (25 mM) in phosphate buffered D2O, pD=7.4. The class given is physicochemical. The conditions noted are these: 25 mM mercaptoethanol. The protocol: as §1
TCO 14 (3.1 mg, 18 μmol) in a solution of mercaptoethanol in phosphate buffered D2O (720 μL, 18 μmol, 25 mM, pD=7.4) was monitored by quantitative 1H NMR on a 600 MHz instrument to observe the decomposition of the trans-isomer over time. Methyl tert-butyl ether (2.1 μL, 18 μmol) was used as an internal standard. After 4 hours, 93% of 14 remained and 49% of 14 remained after 20 hours. (FIG. 6C). The results were plotted using Prism software (Version 8.00, GraphPad Software Inc). A waterfall plot of the ^1H NMR spectra is provided.
TCO 4a (2.3 mg, 18 μmol) in a solution of mercaptoethanol in phosphate buffered D2O (720 μL, 18 μmol, 25 mM, pD=7.4) was monitored by quantitative 1H NMR on a 600 MHz instrument to observe the decomposition of the trans-isomer over time. Methyl tert-butyl ether (2.1 μL, 18 μmol) was used as an internal standard. After 4 hours, 89% of 4a and 49% of 4a remained after 20 hours. (FIG. 6C). The results were plotted using Prism software (Version 8.00, GraphPad Software Inc). A waterfall plot of the ^1H NMR spectra is provided.

The test system of data set [5] is HeLa cells transfected with either HaloTag-H2B-GFP (nucleus) or HaloTag-GAP43-GFP (cytoplasm). The data set can be described thus: TAMRA-a-TCO permeability assay (HaloTag intracellular labeling). Format: cell-based. The conditions noted are these: 1 μM, 30 min. The protocol: Here, cells are transfected with a GFP-HaloTag construct fused to a protein that controls subcellular localization, and then labeled by a tetrazine-HaloTag ligand 21. Upon subsequent reaction with fluorescent TAMRA-a-TCO, conjugation is expected only in those cells that express the HaloTag fusion protein, and co-localization of GFP and TAMRA fluorescence is expected.
HeLa Cell Culture and Transfection: HeLa cells were grown in Dulbecco's modified eagle medium (DMEM, Life Technologies) supplemented with 10% (v:v) heat inactivated fetal bovine serum (Life Technologies), 2 mM I-glutamine, and 100 units/mL penicillin/streptomycin (Life Technologies) in a humidified incubator at 37° C./5% CO2. Transfection was performed with cells at 70% confluency using Lipofectamine 3000 according to the manufacturer's instructions. HeLa cells were incubated for 5 hours at 37° C./5% CO2 before being exchanged with antibiotic free growth media for 16-20 hours prior to experimental procedures. […]

In data set [6] the test system is HeLa cells. The data set can be described thus: TAMRA-TCO comparative washout assay. The class given is cell-based. The conditions noted are these: 5 μM, 30 min incubation. An excerpt:
While TCO-derivatives offer rapid labeling kinetics, a consideration for labeling by fluorophore-tagged TCOs has been the background fluorescence due to non-covalent cellular binding that can be ameliorated only by extended washout times. More hydrophilic oxo- and dioxo-trans-cyclooctenes with backbone oxygens offer improvements, but are difficult to synthesize and, for dioxo-TCO, display reduced Diels-Alder kinetics. As shown in FIGS. 5A-5C, the fluorescent conjugates TAM RA-TCO, TAMRA-oxo-TCO and TAMRA-a-TCO were prepared and compared their cellular washout times to unconjugated TAMRA. Thus, HeLa cells were incubated for 30 min with TAMRA-dyes, and cells were initially washed three times with DPBS, and then cell media was exchanged after 10, 40 and 120 minutes. After each wash, cells were imaged live by fluorescence microscopy with illumination at 531 nm and fixed-intensity across all samples. Widefield images of the cells after 3 washes are shown in FIG. 5B; images after the earlier and later washings are shown in FIG. 8. Background fluorescence was quantified by dividing total fluorescence by the number of cells in each image (FIG. 5C).
HeLa cells were seeded at 5×10^3 cells per well in a poly-L-lysine (0.1 mg/mL) coated 48-well plate and allowed to grow for 48 hours in Dulbecco's modified eagle medium (DMEM, Life Technologies) supplemented with 5% FBS (Life Technologies), 1 mM L-glutamine, and 1% penicillin/streptomycin (Life Technologies). Cells were then incubated with media containing 5 μM of TAMRA-TCO, TAMRA-oxo-TCO, or TAMRA-a-TCO 12 (1 mM stock solutions in DMSO, diluted twice into media) for 30 mins at 37° C. All wells were washed three times with DPBS before adding fresh media. Cells were imaged after 2 DPBS washes and again after the 3rd DPBS wash, then incubated for additional time intervals: 10 minutes, 40 minutes, and 2 hour. At each time point, the media was removed from the designated wells and replaced with fresh media before imaging. Images were taken with an EVOS M7000 and all images were taken with the same laser power and gain. Fluorescence intensity was calculated for each sample in 3 replicates using ImageJ and the fluorescence data was normalized with the cell count of each image.

Turning to `OCC[C@]1(O)CC/C=C/CCC1` [Compound 14, 5-ax-Hydroxy-5-eq-(2-hydroxyethyl)-trans-cyclooctene], the Kobs in data set [1] (A (0.49 mM) of 14, 0.05 mM tetrazine, 25° C.) was 76.13; in data set [1] (B (0.73 mM) of 14, 0.05 mM tetrazine, 25° C.), 121.4; in data set [1] (C (0.97 mM) of 14, 0.05 mM tetrazine, 25° C.), 162.4; in data set [1] (D (1.31 mM) of 14, 0.05 mM tetrazine, 25° C.), 200.2. Further, the “reactivity relative to oxo-TCO” value in data set [1] (comparison of k2 with oxo-TCO) is “more reactive than oxo-TCO”. In addition, the “reactivity toward 20 relative to 4a” value in data set [1] (ratio of k2 versus axial isomer 4a) is recorded as “more than twice as reactive”. Moreover, in data set [1] (ratio of k2 versus equatorial isomer 4b), the “reactivity toward 20 relative to 4b” value is on record as ~7 times. The “second-order rate constant k2” value in data set [1] (toward tetrazine 20, stopped flow, 25° C., 95:5 PBS:MeOH) is listed as 150,000±8000 M^−1s^−1. The “decomposition of the trans-isomer” value in data set [2] is “no observable decomposition”. Besides, the TCO remaining in data set [3] (phosphate buffered D2O pD 7.4, 1 day (24 h), room temperature) worked out at 90%; in data set [3] (phosphate buffered D2O pD 7.4, 5 days) it was 39%; in data set [4] (phosphate buffered D2O pD 7.4, 4 hours), 93%; in data set [4] (phosphate buffered D2O pD 7.4, 20 hours), 49%.

Turning to `CN(C)c1ccc2c(-c3ccc(C(=O)NCCCCCNC(=O)C[C@]4(O)CC/C=C/CCC4)cc3C(=O)[O-])c3ccc(=[N+](C)C)cc-3oc2c1` [TAMRA-a-TCO, (R,E)-2-(6-(dimethylamino)-3-(dimethyliminio)-3H-xanthen-9-yl)-5-((5-(2-(1-hydroxycyclooct-4-en-1-yl)acetamido)pentyl)carbamoyl)benzoate], the cell permeability result in data set [5] (live HeLa cells, after MeTz-Halo 21 (10 μM)) is listed as “cell permeable”. In addition, in data set [5] (nuclear (H2B) and cytoplasmic (GAP43) HaloTag targets, confocal microscopy), the “colocalization of TAMRA signal with GFP” value was “subcellular colocalization of GFP and TAMRA fluorescence; also recorded: selective colocalization of the TAMRA signal with GFP was observed”. Besides, the “reduction in background fluorescence relative to TAMRA-TCO” value in data set [6] (after initial 3× wash) came to 85%. For the same compound, the “background fluorescence / washout after 2 hours” value in data set [6] (media exchanges up to 2 hours) was “essentially complete”.
